Assay results: US9730944B2, “Antiviral activity of novel bicyclic heterocycles” (priority 2010, dated 2017)
In brackets after ≈: the same amount, converted by molar mass.

Key:
hRV-70 = assay: Rhinovirus type 70 antiviral assay in Hela Rh cells, MTS readout; assay type: cell-based, Human rhinovirus; conditions: Human rhinovirus sp., HRV70, HeLa Rh, Hela Rh cells; read-out: hRV-70 EC50
hRV-2 = assay: Rhinovirus type 2 antiviral assay in Hela Rh cells, MTS readout; assay type: cell-based, Human rhinovirus; conditions: Rhinovirus A, HRV2, HeLa Rh, Hela Rh cells; read-out: hRV-2 EC50
hRV-45 = assay: Rhinovirus type 45 antiviral assay in Hela Rh cells, MTS readout; assay type: cell-based, Human rhinovirus; conditions: Human rhinovirus sp., HRV45, HeLa Rh, Hela Rh cells; read-out: hRV-45 EC50
[1] = Cytostatic/cytotoxic effect in Hela Rh cells (rhinovirus methodology, MTS); conditions: human, CC50, Hela Rh cells
hRV-9 = assay: Rhinovirus type 9 antiviral assay in Hela Rh cells, MTS readout; assay type: cell-based, Human rhinovirus; conditions: Human rhinovirus sp., HRV9, HeLa Rh, Hela Rh cells; read-out: hRV-9 EC50
hRV-14 = assay: Rhinovirus type 14 antiviral assay in Hela Rh cells, MTS readout; assay type: cell-based, Human rhinovirus; conditions: Rhinovirus B, HRV14, HeLa Rh, Hela Rh cells; read-out: hRV-14 EC50
hRV-63 = assay: Rhinovirus type 63 antiviral assay in Hela Rh cells, MTS readout; assay type: cell-based, Human rhinovirus; conditions: Human rhinovirus sp., HRV63, HeLa Rh, Hela Rh cells; read-out: hRV-63 EC50
hRV-72 = assay: Rhinovirus type 72 antiviral assay in Hela Rh cells, MTS readout; assay type: cell-based, Human rhinovirus; conditions: Human rhinovirus sp., HRV72, HeLa Rh, Hela Rh cells; read-out: hRV-72 EC50
hRV-85 = assay: Rhinovirus type 85 antiviral assay in Hela Rh cells, MTS readout; assay type: cell-based, Human rhinovirus; conditions: Human rhinovirus sp., HRV85, HeLa Rh, Hela Rh cells; read-out: hRV-85 EC50
hRV-86 = assay: Rhinovirus type 86 antiviral assay in Hela Rh cells, MTS readout; assay type: cell-based, Human rhinovirus; conditions: Human rhinovirus sp., HRV86, HeLa Rh, Hela Rh cells; read-out: hRV-86 EC50
hRV-15 = assay: Rhinovirus type 15 antiviral assay in Hela Rh cells, MTS readout; assay type: cell-based, Human rhinovirus; conditions: Human rhinovirus sp., HRV15, HeLa Rh, Hela Rh cells; read-out: hRV-15 EC50
hRV-39 = assay: Rhinovirus type 39 antiviral assay in Hela Rh cells, MTS readout; assay type: cell-based, Human rhinovirus; conditions: Human rhinovirus sp., HRV39, HeLa Rh, Hela Rh cells; read-out: hRV-39 EC50
hRV-42 = assay: Rhinovirus type 42 antiviral assay in Hela Rh cells, MTS readout; assay type: cell-based, Human rhinovirus; conditions: Human rhinovirus sp., HRV42, HeLa Rh, Hela Rh cells; read-out: hRV-42 EC50
hRV-41 = assay: Rhinovirus type 41 antiviral assay in Hela Rh cells, MTS readout; assay type: cell-based, Human rhinovirus; conditions: Human rhinovirus sp., HRV41, HeLa Rh, Hela Rh cells; read-out: hRV-41 EC50
hRV-29 = assay: Rhinovirus type 29 antiviral assay in Hela Rh cells, MTS readout; assay type: cell-based; conditions: Human rhinovirus sp., HRV29, HeLa Rh, Hela Rh cells; read-out: hRV-29 EC50

SMILES | EC50 (hRV-70) | EC50 (hRV-2) | EC50 (hRV-45) | CC50 [1] | EC50 (hRV-9) | EC50 (hRV-14) | EC50 (hRV-63) | EC50 (hRV-72) | EC50 (hRV-85) | EC50 (hRV-86) | EC50 (hRV-15) | EC50 (hRV-39) | EC50 (hRV-42) | EC50 (hRV-41) | EC50 (hRV-29)
COc1ccc(OCC(=O)N2CCN(c3nc(N)nc4sc(CCCCc5ccc(F)cc5)nc34)CC2)cc1 [Example 293, 1-(4-(5-amino-2-(4-(4-fluorophenyl)butyl)thiazolo[5,4-d]pyrimidin-7-yl)piperazin-1-yl)-2-(4-methoxyphenoxy)ethanone] | > 50 mg/L | 12.4 mg/L (≈ 22.5 µM) | 35.4 mg/L (≈ 64.2 µM) | > 50 mg/L | > 50 mg/L | > 50 mg/L | 21.2 mg/L (≈ 38.4 µM) | > 50 mg/L | 11.5 mg/L (≈ 20.9 µM) | > 50 mg/L | > 50 mg/L | > 50 mg/L | > 50 mg/L | > 50 mg/L | > 50 mg/L
COc1cccc(CCc2nc3c(N4CCN(C(=O)COc5ccc(Cl)cc5)CC4)nc(N)nc3s2)c1 [Example 255, 1-(4-(5-amino-2-(3-methoxyphenethyl)thiazolo[5,4-d]pyrimidin-7-yl)piperazin-1-yl)-2-(4-chlorophenoxy)ethanone] | 4.02 mg/L (≈ 7.46 µM) | 0.65 mg/L (≈ 1.21 µM) | 2.34 mg/L (≈ 4.34 µM) | > 50 mg/L | 0.52 mg/L (≈ 0.965 µM) | 0.53 mg/L (≈ 0.983 µM) | 3.31 mg/L (≈ 6.14 µM) | > 50 mg/L | 2.18 mg/L (≈ 4.04 µM) | 2.61 mg/L (≈ 4.84 µM) | 1.82 mg/L (≈ 3.38 µM) | 0.5 mg/L (≈ 0.928 µM) | 1.1 mg/L (≈ 2.04 µM) | 20.8 mg/L (≈ 38.6 µM) | 0.6 mg/L (≈ 1.11 µM)
COc1ccc(OCC(=O)N2CCN(c3nc(N)nc4sc(CCc5ccc(Br)cc5)nc34)CC2)cc1 [Example 298, 1-(4-(5-amino-2-(4-bromophenethyl)thiazolo[5,4-d]pyrimidin-7-yl)piperazin-1-yl)-2-(4-methoxyphenoxy)ethanone] | 4.71 mg/L (≈ 8.07 µM) | 0.45 mg/L (≈ 0.771 µM) | 4.56 mg/L (≈ 7.81 µM) | > 50 mg/L | 0.55 mg/L (≈ 0.943 µM) | 1.23 mg/L (≈ 2.11 µM) | 3.9 mg/L (≈ 6.68 µM) | 6.52 mg/L (≈ 11.2 µM) | 2.21 mg/L (≈ 3.79 µM) | 4.58 mg/L (≈ 7.85 µM) | 1.61 mg/L (≈ 2.76 µM) | 0.45 mg/L (≈ 0.771 µM) | 1.2 mg/L (≈ 2.06 µM) | 10.4 mg/L (≈ 17.8 µM) | 0.89 mg/L (≈ 1.53 µM)
Nc1nc(N2CCN(C(=O)COc3ccc(Cl)cc3)CC2)c2nc(CCCc3ccc(F)cc3)sc2n1 [Example 290, 1-(4-(5-amino-2-(3-(4-fluorophenyl)propyl)thiazolo[5,4-d]pyrimidin-7-yl)piperazin-1-yl)-2-(4-chlorophenoxy)ethanone] | > 50 mg/L | 49.2 mg/L (≈ 91 µM) | > 50 mg/L | > 50 mg/L | > 50 mg/L | > 50 mg/L | > 50 mg/L | > 50 mg/L | 19.4 mg/L (≈ 35.8 µM) | > 50 mg/L | > 50 mg/L | > 50 mg/L | > 50 mg/L | > 50 mg/L | > 50 mg/L
Cc1ccc(CCc2nc3c(N4CCN(C(=O)COc5ccc(Br)cc5)CC4)nc(N)nc3s2)cc1 [Example 258, 1-(4-(5-amino-2-(4-methylphenethyl)thiazolo[5,4-d]pyrimidin-7-yl)piperazin-1-yl)-2-(4-bromophenoxy)ethanone] | > 50 mg/L | 9.58 mg/L (≈ 16.9 µM) | 35.4 mg/L (≈ 62.3 µM) | 46.2 mg/L (≈ 81.5 µM) | > 50 mg/L | > 50 mg/L | 34 mg/L (≈ 60 µM) | > 50 mg/L | 8.33 mg/L (≈ 14.7 µM) | > 50 mg/L | > 50 mg/L | 13 mg/L (≈ 22.9 µM) | > 50 mg/L | > 50 mg/L | > 50 mg/L
Nc1nc(N2CCN(C(=O)COc3ccc(OC(F)(F)F)cc3)CC2)c2nc(CCc3ccc(F)cc3)sc2n1 [Example 226, 1-(4-(5-amino-2-(4-fluorophenethyl)thiazolo[5,4-d]pyrimidin-7-yl)piperazin-1-yl)-2-(4-(trifluoromethoxy)phenoxy)ethanone] | > 50 mg/L | > 50 mg/L | > 50 mg/L | > 50 mg/L | > 50 mg/L | > 50 mg/L | > 50 mg/L | > 50 mg/L | 29.9 mg/L (≈ 51.9 µM) | > 50 mg/L | > 50 mg/L | > 50 mg/L | > 50 mg/L | > 50 mg/L | > 50 mg/L
Nc1nc(N2CCN(C(=O)COc3cccc([N+](=O)[O-])c3)CC2)c2nc(CCc3ccc(F)cc3)sc2n1 [Example 131, 5-amino-2-[2-(4-fluorophenyl)ethyl]-7-(4-[2-(3-nitrophenoxy)acetyl]piperazin-1-yl)-thiazolo[5,4-d]pyrimidine] | 15.3 mg/L (≈ 28.4 µM) | 2.5 mg/L (≈ 4.65 µM) | 9.05 mg/L (≈ 16.8 µM) | > 50 mg/L | 2.11 mg/L (≈ 3.93 µM) | > 50 mg/L | 34.5 mg/L (≈ 64.3 µM) | 37.7 mg/L (≈ 70.2 µM) | 7.26 mg/L (≈ 13.5 µM) | 7.07 mg/L (≈ 13.2 µM) | > 50 mg/L | 1.52 mg/L (≈ 2.83 µM) | 12.3 mg/L (≈ 22.8 µM) | > 50 mg/L | > 50 mg/L
COC(=O)c1ccc(OCC(=O)N2CCN(c3nc(N)nc4sc(CCc5ccc(F)cc5)nc34)CC2)cc1 [Example 225, methyl 4-(2-(4-(5-amino-2-(4-fluorophenethyl)thiazolo[5,4-d]pyrimidin-7-yl)piperazin-1-yl)-2-oxoethoxy)benzoate] | > 50 mg/L | 1.12 mg/L (≈ 2.03 µM) | 43.1 mg/L (≈ 78.3 µM) | 5.34 mg/L (≈ 9.7 µM) | > 50 mg/L | > 50 mg/L | 39.7 mg/L (≈ 72.1 µM) | > 50 mg/L | 14.6 mg/L (≈ 26.5 µM) | > 50 mg/L | > 50 mg/L | > 50 mg/L | > 50 mg/L | > 50 mg/L | > 50 mg/L
CC(C)(C)OC(=O)N[C@@H]1CCN(c2nc(N)nc3sc(-c4ccc(F)cc4)cc23)C1 [Example 338, (R)-tert-butyl 1-(2-amino-6-(4-fluorophenyl)thieno[2,3-d]pyrimidin-4-yl)pyrrolidin-3-ylcarbamate] | 3.65 mg/L (≈ 8.5 µM) | 0.37 mg/L (≈ 0.861 µM) | 4.23 mg/L (≈ 9.85 µM) | > 50 mg/L | 0.78 mg/L (≈ 1.82 µM) | 1.11 mg/L (≈ 2.58 µM) | 8.43 mg/L (≈ 19.6 µM) | 4.96 mg/L (≈ 11.5 µM) | 2.17 mg/L (≈ 5.05 µM) | 2.37 mg/L (≈ 5.52 µM) | 1.52 mg/L (≈ 3.54 µM) | 0.38 mg/L (≈ 0.885 µM) | 5.65 mg/L (≈ 13.2 µM) | 27.4 mg/L (≈ 63.7 µM) | 0.39 mg/L (≈ 0.908 µM)
